# Patent US20170216252A1, “ANTI-BACTERIAL PYRUVATE KINASE MODULATOR COMPOUNDS, COMPOSITIONS, USES AND METHODS” (SIMON FRASER UNIVERSITY, priority 2014, published 2017)
# Legend:
# [1] = tested on: A. baumannii (ATCC 19606); experiment: Broth microdilution MIC; type: cell-based; conditions: Acinetobacter baumannii, ATCC19606; A. baumannii (ATCC 19606); read-out: MIC (μg/mL) B
# Procedure: (§1) The antimicrobial activities of PK inhibitor candidates were determined using the 96-well microtiter standard 2-fold serial broth microdilution method as described by CLSI (formerly NCCLS) with the various gram-positive and gram-negative bacteria species mentioned above. Bacteria from a single colony were grown, overnight in either BHI Broth (VRE), mueller hinton broth (S. aureus 29213; MRSA USA400) or L-broth (E. coli, P. aeruginosa, S. typhimuriu, K. Pneumonia and A. baumannii). […] Culture plates were incubated for 18-24 h at 37° C., and optical density at 600 nm (OD600) was measured using a Benchmark Plus™ microplate spectrophotometer (Bio-Rad™). The absorbance control values for the series containing CAMHB and inhibitor were subtracted as background from the corresponding infected wells. The MIC was defined as the lowest concentration of test compound leading to complete inhibition of cell growth in relationship to compound-free control wells as determined by optical density. […] All assays were run in triplicate (Tables 1-6) or duplicate. Experiments were replicated at least twice to verify reproducibility using the above conditions.
# (§2) The antimicrobial activity of selected compounds against the gram negative bacteria Klebsiella pneumoniae, Acinetobacter baumannii, E. coli, Pseudomonas aeruginosa and Salmonella typhimurium, as well as additional gram positive bacteria, including drug-resistant strains, was tested according to the procedures provided under “General Methodologies” above.
# [2] = tested on: K. pneumoniae (C238); experiment: Broth microdilution MIC; type: cell-based; conditions: Klebsiella pneumoniae; K. pneumoniae (C238); read-out: MIC (μg/mL) A
# Procedure: as §1, §2
# [3] = tested on: MRSA MW2 (USA400); experiment: Broth microdilution MIC; type: cell-based; conditions: Staphylococcus aureus; MRSA MW2 (USA400); read-out: MIC (μg/mL) G
# Procedure: as §1, §2
# [4] = tested on: P. aeruginosa (PA01); experiment: Broth microdilution MIC; type: cell-based; conditions: Pseudomonas aeruginosa
# Procedure: as §1, §2
# [5] = tested on: S. pyogenes (ATCC700294); experiment: Broth microdilution MIC; type: cell-based; conditions: Streptococcus pyogenes
# Procedure: as §1, §2
# [6] = tested on: S. typhimurium (SL 1344); experiment: Broth microdilution MIC; type: cell-based; conditions: Salmonella enterica
# Procedure: as §1, §2
# [7] = tested on: VRE#2 (2010A); experiment: Broth microdilution MIC; type: cell-based, vancomycin-resistant Enterococcus; conditions: Enterococcus; VRE#2 (2010A); read-out: MIC (μg/mL) F
# Procedure: as §1, §2
# [8] = In vivo tolerability (MTD) study
# Procedure: (§3) The MTD and pharmacokinetic profiles of compounds 123 and 178 administered IV or PO were determined in female CD-1 mice (6-8 weeks of age). Compounds were dissolved in 3% DMSO/6% Solutol® HS 15/10 mM PB (pH7.4) for IV administration and in 3% DMSO/6% Solutol® HS 15/water for oral administration.
# For tolerability studies, one animal from each group was administered the lowest dose first and then observed for 60 min. […] On the following day, the next higher dose was administered using the same procedure outlined above. Animals were euthanized 24 hours after the last injection, a cardiac puncture blood sample was collected and processed for plasma. Thigh muscle was collected and a necropsy performed.
# [9] = Pharmacokinetic study; type: in vivo, female CD-1 mice; conditions: female, CD-1, mouse, plasma
# Procedure: as §3
# For the pharmacokinetic study, animals were injected with their respective compound at the dose indicated in 11. At their respective time point, animals were deeply anesthetized with isoflurane and then asphyxiated with CO2. Cardiac puncture blood was collected immediately following death, and the blood processed to generate plasma.
# [10] = tested on: S. aureus ATCC 29123; experiment: Neutropenic mouse Staphylococcus aureus thigh infection model; type: in vivo; conditions: for median CFU/thigh: 24 h endpoint
# Procedure: The antimicrobial activity of compound 178 against S. aureus ATCC 29123 was tested in vivo using the neutropenic mouse Staphylococcus aureus thigh infection model. […] Animals were individually monitored for adverse reactions for 30 min post-infection. […] Vancomycin was administered as a solution in PBS. The test compounds were administered as outlined in Table 12 at 2 and 8 hours post-infection and animals were individually monitored for adverse reactions for 30 min after each injection. All animals were then monitored hourly from 20 hours post infection to the endpoint (t=24 hr post infection). At the indicated timepoint, animals were sacrificed and the injected thigh collected. Quantitative enumeration of bacterial load was determined by plating serial dilutions from homogenized thigh muscles. Homogenized muscle was in a total of 2 mL volume, from which a 1 in 10 dilution was prepared (100 μL into 900 μL saline). From this a series of dilutions were prepared and plated on Mueller Hinton agar plates. […] At the end of this time colony counts were determined and the final CFU per mL calculated.
smiles,measurement,setting,value
"O=C(c1c(-c2cc3cc(Cl)ccc3[nH]2)[nH]c2cc(Br)ccc12)C(F)(F)F [Compound 178, 1-(6-bromo-5′-chloro-1H,1′H-[2,2′-biindol]-3-yl)-2,2,2-trifluoroethan-1-one]",MIC,[1],> 64 µg/mL
same,MIC,[2],1 µg/mL
same,MIC,[3],0.5 µg/mL
same,MIC,[4],> 64 µg/mL
same,MIC,[5],1 µg/mL
same,MIC,[6],> 64 µg/mL
same,MIC,[7],1 µg/mL
same,Tolerability,[8]; IV doses of 30 mg/kg,well tolerated
same,Tolerability,[8]; PO doses of 10 mg/kg,well tolerated
same,bioavailability,"[9]; 10 mg/kg, PO administration, read-out: bioavailability (% F)",21%
same,Cmax,[9]; IV administration at 3 mg/kg,19000 ng/mL
same,half-life,[9]; IV administration at 3 mg/kg,2.27 h
same,log reduction in median counts for CFU/thigh,[10]; all treated groups vs untreated control,≥ 1 log
same,median CFU/thigh,"[10]; group 3, 3 mg/kg IV at 2 and 8 h",8.27×10^6 CFU/thigh
same,median CFU/thigh,"[10]; group 4, 10 mg/kg IV at 2 and 8 h",1.38×10^3 CFU/thigh
same,median CFU/thigh,"[10]; group 5, PO 10 mg/kg at 2 and 8 h",1.2×10^2 CFU/thigh
same,log reduction in median counts,"[10]; group 5, PO 10 mg/kg vs untreated control",6 log
same,CFU/thigh of one mouse dosed only once,"[10]; group 5, PO 10 mg/kg, single dose",2.2×10^2 CFU/thigh
